# Data reported in US20240262819A1, “NOVEL COMPOUNDS HAVING INHIBITORY ACTIVITY AGAINST GLUCOSYLCERAMIDE SYNTHASE OR PHARMACEUTICALLY ACCEPTABLE SALT THEREOF, PROCESSES FOR PREPARING THE SAME, AND PHARMACEUTICAL COMPOSITIONS COMPRISING THE SAME” (YUHAN CORPORATION, priority 2021, published 2024).
# Where two headings read alike, the source gives them in different places.
# What was measured:
# [1] = molecular target: glucosylceramide synthase (GCS) (Homo sapiens (Human), UniProt Q16739); test: Evaluation of inhibitory activities against GCS (A549 cell lysate, NBD C6-ceramide, HPLC); format: biochemical
# Procedure, shortened: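 GCS activity in A549 cell lysate (50 mM HEPES, pH 7.3) with NBD C6-ceramide, reacted 90 min at 37 °C. Lipids were chloroform/methanol-extracted and separated by normal-phase HPLC with fluorescence detection (ex 470/em 530 nm). GlcCer fraction of peak area was normalized between DMSO and ibiglustat, and IC50 obtained by curve fitting.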
# [2] = tested on: GM1 production in Jurkat cells; test: cells; format: cell-based
# [3] = Evaluation of blood-brain barrier (BBB) permeability through oral administration; format: in vivo, mice; settings: mice, oral, dose 30 mg/kg, 4 hr; for Kp at 4 h / concentration at 4 h: mouse, in vivo; for Kp at 4 h: read-out: Mean brain-plasma drug ratio at 4 hr
# Procedure: The blood-brain barrier (BBB) permeability was evaluated in mice, with respect to the compounds according to the present invention and the control (ibiglustat). Each compound of the present invention and the control were suspended in 0.5% methyl cellulose containing 0.2% Tween 80 and then orally administered to mice at a dose of 10 or 30 mg/10 ml/kg. After the whole blood was collected from the heart of each mouse at the time of 4 hours after the administration, it was placed in a lithium heparin tube and immediately centrifuged to obtain the plasma. After the exsanguination was carried out through abdominal vena cava incision, the forebrain was taken by dissection of the head. Both of the forebrain and the plasma were stored in a −80° C. freezer until the analysis of drug concentrations therein. For the analysis of drug concentrations therein, the forebrain was immersed in distilled water and then homogenized with a homogenizer to obtain a homogenate. Each plasma and homogenate was treated with acetonitrile to precipitate proteins, vortexed for 15 seconds, and then centrifuged (12700 rpm, 10 min, 4° C.). The obtained supernatant was diluted with an 80% aqueous solution of acetonitrile containing 0.1% formic acid and then analyzed with an LC-MS/MS instrument. LC-MS/MS analysis was carried out with a reversed-phase column, using distilled water containing 0.1% formic acid and acetonitrile as mobile phases. Each eluted material was detected through a mass spectrometer to calculate the drug concentrations thereof. The brain-plasma drug ratio (B/P ratio) was calculated from the drug concentrations in each tissue to evaluate the blood-brain barrier (BBB) permeability.
# [4] = read-out: Mean drug concentrations in brain tissue at 4 hr
# [5] = read-out: Mean drug concentrations in plasma at 4 hr
# Chain of glucosylceramide synthase (GCS) (Q16739 whole entry): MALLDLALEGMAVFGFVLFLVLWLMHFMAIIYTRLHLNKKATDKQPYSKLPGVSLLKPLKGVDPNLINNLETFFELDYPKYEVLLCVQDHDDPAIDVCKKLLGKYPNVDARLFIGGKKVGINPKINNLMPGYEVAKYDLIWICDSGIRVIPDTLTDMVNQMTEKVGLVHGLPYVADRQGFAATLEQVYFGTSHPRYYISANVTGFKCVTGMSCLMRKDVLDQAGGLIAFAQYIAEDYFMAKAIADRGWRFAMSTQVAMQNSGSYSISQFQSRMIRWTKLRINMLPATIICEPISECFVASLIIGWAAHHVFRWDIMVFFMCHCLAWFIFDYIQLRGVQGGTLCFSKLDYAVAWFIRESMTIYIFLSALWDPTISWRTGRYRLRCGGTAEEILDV
Compound,IC50 [1],"IC50 ([2]; Homo sapiens, Jurkat, 72 h)",Kp at 4 h [3],"concentration at 4 h [3, 4]","concentration at 4 h [3, 5]","IC50 ([1]; % GCS activity, A549 cell lysate, 37° C. for 90 minutes, read-out: IC50)",IC50 ([2]; read-out: IC50),Mean brain-plasma drug ratio at 4 hr [3],Mean drug concentrations in brain tissue at 4 hr [3],Mean drug concentrations in plasma at 4 hr [3]
"CC1(C)Cc2cc(-c3ccc(OCC4CC4)c(Cl)c3)ccc2[C@@H]1NC(=O)O[C@@H]1CN2CCC1CC2 [Example 39, (S)-quinuclidin-3-yl((R)-5-(3-chloro-4-(cyclopropylmethoxy)phenyl)-2,2-dimethyl-2,3-dihydro-1H-inden-1-yl)carbamate]",1.03 nM,1.1 nM,9.85,5510 ng/g,564 ng/mL,–,–,–,–,–
"CCOc1ccc(-c2cc3c(cc2F)[C@H](NC(=O)O[C@@H]2CN4CCC2CC4)C(C)(C)CC3)cc1 [Example 176, (S)-quinuclidin-3-yl((R)-6-(4-ethoxyphenyl)-7-fluoro-2,2-dimethyl-1,2,3,4-tetrahydronaphthalen-1-yl)carbamate]",0.24 nM,2.1 nM,3.58,4860 ng/g,1360 ng/mL,–,–,–,–,–
"CCOc1ccc(-c2cc3c(cc2F)[C@H](NC(=O)O[C@@H]2CN4CCC2CC4)C(C)(C)C3)c(Cl)c1 [Example 104, (S)-quinuclidin-3-yl((R)-5-(2-chloro-4-ethoxyphenyl)-6-fluoro-2,2-dimethyl-2,3-dihydro-1H-inden-1-yl)carbamate]",0.1 nM,1.4 nM,3.76,5180 ng/g,1380 ng/mL,–,–,–,–,–
"CC1(C)Cc2cc(-c3ccc(OCC4CC4)cc3Cl)ccc2[C@@H]1NC(=O)O[C@@H]1CN2CCC1CC2 [Example 38, (S)-quinuclidin-3-yl((R)-5-(2-chloro-4-(cyclopropylmethoxy)phenyl)-2,2-dimethyl-2,3-dihydro-1H-inden-1-yl)carbamate]",0.05 nM,3.2 nM,5.6,3640 ng/g,670 ng/mL,–,–,–,–,–
"CC(C)Oc1ccc(-c2cc3c(cc2F)[C@H](NC(=O)O[C@@H]2CN4CCC2CC4)C(C)(C)C3)c(Cl)c1 [Example 92, (S)-quinuclidin-3-yl((R)-5-(2-chloro-4-isopropoxyphenyl)-6-fluoro-2,2-dimethyl-2,3-dihydro-1H-inden-1-yl)carbamate]",0.07 nM,1.16 nM,4.13,2230 ng/g,545 ng/mL,–,–,–,–,–
"CCOc1ccc(-c2cc3c(cc2F)[C@H](NC(=O)O[C@@H]2CN4CCC2CC4)C(C)(C)C3)cc1Cl [Example 86, (S)-quinuclidin-3-yl((R)-5-(3-chloro-4-ethoxyphenyl)-6-fluoro-2,2-dimethyl-2,3-dihydro-1H-inden-1-yl)carbamate]",0.756 nM,45.8 nM,5.65,4790 ng/g,852 ng/mL,–,–,–,–,–
"CC(C)Oc1ccc(-c2ccc3c(c2)CCC(C)(C)[C@H]3NC(=O)O[C@@H]2CN3CCC2CC3)cc1F [Example 161, (S)-quinuclidin-3-yl((R)-6-(3-fluoro-4-isopropoxyphenyl)-2,2-dimethyl-1,2,3,4-tetrahydronaphthalen-1-yl)carbamate]",7.41 nM,4.5 nM,3.97,4840 ng/g,1240 ng/mL,–,–,–,–,–
"Cc1ccc(-c2cc3c(cc2F)[C@H](NC(=O)O[C@@H]2CN4CCC2CC4)C(C)(C)C3)cc1Cl [Example 84, (S)-quinuclidin-3-yl((R)-5-(3-chloro-4-methylphenyl)-6-fluoro-2,2-dimethyl-2,3-dihydro-1H-inden-1-yl)carbamate]",0.29 nM,17.2 nM,7.23,4940 ng/g,683 ng/mL,–,–,–,–,–
"CC(C)Oc1ccc(-c2ccc3c(c2)CCC(C)(C)[C@H]3NC(=O)O[C@@H]2CN3CCC2CC3)c(Cl)c1 [Example 168, (S)-quinuclidin-3-yl((R)-6-(2-chloro-4-isopropoxyphenyl)-2,2-dimethyl-1,2,3,4-tetrahydronaphthalen-1-yl)carbamate]",0.188 nM,0.23 nM,1.18,3370 ng/g,2890 ng/mL,–,–,–,–,–
"CC(C)Oc1ccc(-c2cc3c(cc2F)[C@H](NC(=O)O[C@@H]2CN4CCC2CC4)C(C)(C)C3)cc1F [Example 83, (S)-quinuclidin-3-yl((R)-6-fluoro-5-(3-fluoro-4-isopropoxyphenyl)-2,2-dimethyl-2,3-dihydro-1H-inden-1-yl)carbamate]",0.58 nM,10.4 nM,6.29,7370 ng/g,1170 ng/mL,–,–,–,–,–
"CCc1cccc(-c2ccc3c(c2)CCC(C)(C)[C@H]3NC(=O)O[C@@H]2CN3CCC2CC3)c1 [Example 158, (S)-quinuclidin-3-yl((R)-6-(3-ethylphenyl)-2,2-dimethyl-1,2,3,4-tetrahydronaphthalen-1-yl)carbamate]",0.45 nM,1.1 nM,3.67,3720 ng/g,1020 ng/mL,–,–,–,–,–
"COc1ccc(-c2cc3c(cc2F)[C@H](NC(=O)O[C@@H]2CN4CCC2CC4)C(C)(C)CC3)c(F)c1 [Example 194, (S)-quinuclidin-3-yl((R)-7-fluoro-6-(2-fluoro-4-methoxyphenyl)-2,2-dimethyl-1,2,3,4-tetrahydronaphthalen-1-yl)carbamate]",0.41 nM,4.6 nM,1.67,2100 ng/g,1260 ng/mL,–,–,–,–,–
"CC(C)Oc1ccc(-c2cc3c(cc2F)[C@H](NC(=O)O[C@@H]2CN4CCC2CC4)C(C)(C)CC3)cc1F [Example 198, (S)-quinuclidin-3-yl((R)-7-fluoro-6-(3-fluoro-4-isopropoxyphenyl)-2,2-dimethyl-1,2,3,4-tetrahydronaphthalen-1-yl)carbamate]",0.34 nM,3.2 nM,3.46,5120 ng/g,1480 ng/mL,–,–,–,–,–
"CC(C)Oc1ccc(-c2cc3c(cc2F)[C@H](NC(=O)O[C@@H]2CN4CCC2CC4)C(C)(C)CC3)cc1Cl [Example 193, (S)-quinuclidin-3-yl((R)-6-(3-chloro-4-isopropoxyphenyl)-7-fluoro-2,2-dimethyl-1,2,3,4-tetrahydronaphthalen-1-yl)carbamate]",0.78 nM,6.75 nM,3.46,3020 ng/g,871 ng/mL,–,–,–,–,–
"(S)-quinuclidin-3-yl((R)-6-(2-chloro-4-isopropoxyphenyl)-7-fluoro-2,2-dimethyl-1,2,3,4-tetrahydronaphthalen-1-yl) carbamate [Example 199]",–,–,–,–,–,0.192 nM,0.03 nM,1.165,2689 ng/g,2327.6 ng/mL
"COc1c(C)cc(-c2cc3c(cc2F)[C@H](NC(=O)O[C@@H]2CN4CCC2CC4)C(C)(C)CC3)cc1C [Example 180, (S)-quinuclidin-3-yl((R)-7-fluoro-6-(4-methoxy-3,5-dimethylphenyl)-2,2-dimethyl-1,2,3,4-tetrahydronaphthalen-1-yl)carbamate]",1.32 nM,8 nM,1.34,1510 ng/g,1140 ng/mL,–,–,–,–,–
"COc1cc(-c2ccc3c(c2)CC(C)(C)[C@H]3NC(=O)O[C@@H]2CN3CCC2CC3)ccc1OC(C)C [Example 35, (S)-quinuclidin-3-yl((R)-5-(4-isopropoxy-3-methoxyphenyl)-2,2-dimethyl-2,3-dihydro-1H-inden-1-yl)carbamate]",2.22 nM,3.3 nM,1.85,2010 ng/g,1080 ng/mL,–,–,–,–,–
"CC(C)Oc1ccc(-c2ccc3c(c2)CC(C)(C)[C@H]3NC(=O)O[C@@H]2CN3CCC2CC3)c(Cl)c1 [Example 32, (S)-quinuclidin-3-yl((R)-5-(2-chloro-4-isopropoxyphenyl)-2,2-dimethyl-2,3-dihydro-1H-inden-1-yl)carbamate]",0.192 nM,4.23 nM,4.23,5650 ng/g,1340 ng/mL,–,–,–,–,–
"CC(C)Oc1cccc(-c2ccc3c(c2)CCC(C)(C)[C@H]3NC(=O)O[C@@H]2CN3CCC2CC3)c1 [Example 165, (S)-quinuclidin-3-yl((R)-6-(3-isopropoxyphenyl)-2,2-dimethyl-1,2,3,4-tetrahydronaphthalen-1-yl)carbamate]",0.55 nM,2.51 nM,2.83,2400 ng/g,852 ng/mL,–,–,–,–,–
